Experimental findings from PubChem BioAssay (NCI) are described below.

SMILES strings stand for the structures. Values joined by “and” are separate entries in the source; they are usually repeats but may differ in a detail not shown here. Equal values may be shown once.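 All cell lines were grown in 96-well plates and treated with compound for 48 hours. At the GI50, growth is halved. TGI: concentration producing complete growth inhibition.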 A value given as a limit tells only on which side of the number the result lay.

Assay in all cases: inhibition of tumour cell growth, NCI panel, 48 h
In assay [1] the test system is CCRF-CEM leukemia.
Assay [2] has as its system HCT-15 colon.
Assay [3] concerns HT29 colon.
Assay [4] deals with MCF7 breast.
The subject of assay [5] is MDA-MB-435.
Assay [6] deals with SF-539 CNS.
In assay [7] the test system is SK-MEL-2 melanoma.
Assay [8] deals with SK-MEL-28 melanoma.
For assay [9], the system named is SNB-75 CNS.
The subject of assay [10] is T-47D breast.

`CC[C@H](C)C(=O)O[C@H]1CCC=C2C=C[C@H](C)[C@H](CC[C@@H]3C[C@@H](O)CC(=O)O3)[C@H]21`: the GI50 was 34.1 µM in [1]; 2.52 µM in assay [2]; 28 µM in assay [3]; above 42.5 µM in assay [4]; 7.51 µM in assay [5]; 12.8 µM in assay [6]. The GI50 in assay [7] is 1.77 µM; in [8], 15.3 µM; in assay [9], 1.37 µM; in [10], 21.9 µM. Moreover, the TGI in assay [1], in assay [2], in assay [3], in [4], in assay [5] and in assay [6] was above 100 µM in each case. For the same compound, the TGI in assay [7] is 11.7 µM; in assay [8] it was above 100 µM; in [9] it was 4.68 µM; in assay [10] it was above 100 µM.

Consider `O=C(O)C1C2C=CC(O2)C1C(=O)NCc1ccncc1` (stereo unspecified), for which the TGI in assay [1], in assay [3], in assay [4], in [5], in assay [6] and in assay [7] was above 100 µM in each case. Further, the TGI in assay [8], in assay [9] and in assay [10] was above 100 µM each time.

On to `C=C1C(=O)O[C@H]2C3OC3(C)CC/C=C(/C(=O)OC)[C@@H](OC(C)=O)[C@H](OC(=O)C3(C)OC3C)[C@H]12` (stereo partly specified), for which the GI50 in assay [1] was 0.173 µM and 0.231 µM; in [2], 899 nM and 3.85 µM and 0.482 µg/mL; in assay [3], 1.29 µM and 1.06 µM and 1.32 µg/mL; in assay [4], 0.334 µM; in [6] it was 2.88 µM and 1.98 µM and 3.21 µg/mL; in assay [8], 1.06 µM and 1.74 µM and 0.336 µg/mL. In addition, the GI50 in assay [9] was 5.54 µM and 11.2 µM and 2.27 µg/mL; in assay [10], 4.6 µM. Moreover, the TGI was 0.461 µM and 1.15 µM in [1]; 2.78 µM and 32.2 µM and 2.13 µg/mL in [2]; 2.55 µM and 2.3 µM and 4.03 µg/mL in [3]; 7.16 µM and 1.28 µM in assay [4]; 3.95 µM and 4.99 µM in assay [5]; 7.5 µM and 6.28 µM and 7.06 µg/mL in assay [6]. For the same compound, the TGI in assay [8] is 3.55 µM and 9.53 µM and 0.779 µg/mL; in assay [9], 21.8 µM and 4.68 µg/mL.

For the compound `CC(C)c1ccc(C(O)(C(=O)O)c2ccc(C(C)C)cc2)cc1`, the TGI in [1], in assay [2], in [3], in assay [4], in assay [5] and in [6] was above 100 µM throughout. Also, the TGI in assay [8], in assay [9] and in [10] was above 100 µM in each case.

Consider `Oc1ccccc1/C=N\Nc1ccccc1`, for which the GI50 in assay [1] was 0.533 µM; in assay [2], 4.16 µM; in [3], 9.39 µM; in [4] it was 4.06 µM; in assay [5], 2.87 µM; in [6] it was 2.18 µM. Also, the GI50 was 13.2 µM in [7], 5.33 µM in [8], 21.2 µM in assay [9] and 3.43 µM in assay [10]. In addition, the TGI in assay [1] is above 100 µM; in assay [2], 26.4 µM; in assay [3], 28.4 µM; in assay [4], above 100 µM; in assay [5] it was above 100 µM; in [6], 5.59 µM. Moreover, the TGI in assay [7], in assay [8], in [9] and in assay [10] was above 100 µM each time.

Take `COc1cc2c(cc1OC)-c1c(c3ccc([N+](=O)[O-])cc3c(=O)n1CCCN=[N+]=[N-])C2=O`: the GI50 in [2] is above 100 µM; in assay [3], above 100 µM; in [4] it was 0.556 µM; in assay [5] it was above 100 µM; in [6] it was 36.4 µM; in assay [7] it was above 100 µM. The GI50 in assay [8] is above 100 µM; in [9], 86.2 µM; in assay [10] it was above 100 µM. The TGI in assay [2], in assay [3], in assay [4], in assay [5], in assay [6] and in assay [7] was above 100 µM in each case. For the same compound, the TGI in [8], in assay [9] and in [10] was above 100 µM throughout.

Take `N#Cc1ccc(O)c(C2=NCC(c3ccc(-c4ccccc4)cc3)O2)c1` (stereo unspecified): the GI50 in assay [1] was 0.264 µM; in assay [2], 0.0896 µM; in assay [3] it was 0.866 µM; in [4] it was 0.343 µM; in assay [5] it was 0.665 µM; in assay [6], 0.517 µM. Also, the GI50 in [7] is 0.746 µM; in [8], 1.34 µM; in assay [9] it was 0.625 µM; in assay [10], 0.565 µM. Further, the TGI in assay [1] is above 100 µM; in assay [2] it was 20.4 µM; in [3], 24.1 µM; in assay [4], 11.8 µM; in assay [5], 51.6 µM; in assay [6], 11.4 µM. Also, the TGI was 15.8 µM in assay [7], 43.8 µM in assay [8], 14.4 µM in assay [9] and 24.1 µM in assay [10].

Consider `COc1ccc(Cl)cc1Nc1nc(C(F)(F)F)ccc1C(=O)N/N=C/c1ccccc1Cl`, for which the GI50 is 0.446 µM in assay [1]; 0.754 µM in assay [2]; 4.24 µM in [3]; 1.04 µM in assay [4]; 2.61 µM in assay [5]; 1.85 µM in assay [6]. Further, the GI50 is 3.45 µM in [7], 4.5 µM in [8], 7.32 µM in assay [9] and 1.71 µM in assay [10]. Besides, the TGI in assay [1] was 2.79 µM; in [2], above 63.8 µM; in [3], above 100 µM; in assay [4], 5.34 µM; in [5] it was above 27.7 µM; in assay [6], 5.03 µM. Further, the TGI was above 28.4 µM in [7], above 100 µM in assay [8], above 100 µM in assay [9] and 7.68 µM in assay [10].

For `CC(=O)OCC1OC([S-])C(OC(C)=O)C(OC(C)=O)C1OC(C)=O.[Au+].c1ccc(CN2[CH-]N(Cc3ccccc3)C(c3ccccc3)=C2c2ccccc2)cc1`, the GI50 is 2.65 µM and 0.283 µM in [1]; 1.8 µM and 0.906 µM in assay [2]; 3.38 µM and 1.02 µM in [3]; 1.65 µM and 0.827 µM in assay [4]; 2.94 µM and 0.86 µM in [5]; 2.96 µM and 0.855 µM in [6]. Further, the GI50 in assay [7] was 2.77 µM and 0.656 µM; in [8], 2.33 µM and 0.468 µM; in assay [9], 1.83 µM and 0.412 µM; in assay [10], 1.72 µM and 0.417 µM. Also, the TGI is 13.8 µM and 9.52 µM in assay [1]; 3.68 µM and 2 µM in [2]; 12.6 µM and 4.47 µM in assay [3]; 3.52 µM and 2.04 µM in [4]; 10.4 µM and 3.36 µM in assay [5]; 10.4 µM and 3.81 µM in assay [6]. For the same compound, the TGI was 8.11 µM and 2.2 µM in assay [7]; 5.76 µM and 2.29 µM in [8]; 7.21 µM and 4.4 µM in assay [9]; 3.81 µM and 2.75 µM in assay [10].

In the case of `COC1/C=C/OC2(C)Oc3c(C)c(O)c4c(O)c(c(/C=N/N(c5ccccc5)c5ccccc5)c(O)c4c3C2=O)NC(=O)C(C)=C/C=C/C(C)C(O)C(C)C(O)C(C)C(OC(C)=O)C1C` (stereo unspecified), the GI50 in assay [1] is 1.58 µM; in assay [2] it was 1.48 µM; in assay [3] it was 1.1 µM; in assay [4], 1.62 µM; in [5], 1.65 µM; in assay [6] it was 1.44 µM. Also, the GI50 was 1.84 µM in [7], 1.07 µM in [8], 1.66 µM in assay [9] and 1.82 µM in [10]. Also, the TGI in [1] came out at 6.62 µM; in assay [2], 5.45 µM; in assay [3], 2.63 µM; in [4] it was 6.58 µM; in [5], 5.05 µM; in assay [6], 4.7 µM. Further, the TGI was determined as 7.14 µM in [7], 2.43 µM in [8], 7.18 µM in assay [9] and 7.87 µM in assay [10].

Take `Cc1cc(C(=O)CC(Cl)=C(Cl)Cl)c(Cl)cc1Cl`: the GI50 in [1] is 3.54 µM; in assay [2], 20 µM; in [3], 34.6 µM; in assay [4], 29.1 µM; in assay [5], 17.1 µM; in assay [6] it was 13.1 µM. Moreover, the GI50 is 51.2 µM in assay [7], 33.5 µM in assay [8], 34.8 µM in assay [9] and 19.9 µM in [10]. Besides, the TGI in assay [1] is 27.3 µM; in assay [2] it was 41.2 µM; in [3] it was above 100 µM; in assay [4], above 100 µM; in assay [5], 43.1 µM; in assay [6], 29.9 µM. Moreover, the TGI in assay [7] is above 100 µM; in assay [8], above 100 µM; in assay [9] it was above 100 µM; in assay [10], 44.2 µM.

`N#Cc1ccc(C(=O)c2cnn(-c3ccc(F)cc3)c2N)cc1`: the GI50 in assay [1], in assay [2], in [3], in assay [4], in assay [5] and in assay [6] was above 25 µM in each case. Further, the GI50 in [7], in assay [8], in assay [9] and in [10] was above 25 µM throughout. Besides, the TGI in assay [1], in assay [2], in assay [3], in assay [4], in [5] and in [6] was above 25 µM in each case. Further, the TGI in assay [7], in [8], in assay [9] and in assay [10] was above 25 µM each time.

Consider `O=C(Nc1cccc(-n2ccc3c(NC(=O)c4ccccc4)nccc32)c1)c1ccc(Cl)c(Cl)c1`, for which the GI50 in assay [2] was 0.0879 µM; in assay [3], 0.0833 µM; in assay [4], 0.04 µM; in assay [5] it was 0.0275 µM; in [6], 0.197 µM; in assay [7], 1.12 µM. Also, the GI50 is 0.298 µM in assay [8], 0.147 µM in assay [9] and 1.32 µM in [10]. The TGI is 1.31 µM in assay [2]; 0.84 µM in assay [3]; 1.43 µM in assay [4]; 0.103 µM in [5]; 0.952 µM in assay [6]; 2.79 µM in [7]. Moreover, the TGI in assay [8] was 2.06 µM; in assay [9] it was 1.22 µM; in [10] it was 2.85 µM.

For `CN(CCCCCCCCNc1ccnc2ccccc12)Cc1ccc(-c2ccc(-c3ccc(C#N)cc3)s2)cc1`, the GI50 in assay [2] is 0.266 µM; in assay [3], 0.318 µM; in [4], 0.183 µM; in assay [5] it was 1.19 µM; in [6], 0.797 µM; in assay [7] it was 1.85 µM. For the same compound, the GI50 in assay [8] was 1.65 µM; in assay [9], 1.35 µM; in assay [10], 0.881 µM. In addition, the TGI turned out to be 1.37 µM in [2]; 1.77 µM in assay [3]; 0.533 µM in assay [4]; 2.5 µM in assay [5]; 2.23 µM in [6]; 3.83 µM in assay [7]. The figures for the TGI in assay [8], in assay [9] and in [10] were 3.06 µM, 2.68 µM and 3.16 µM, respectively.

In the case of `COc1ccccc1-c1ccc2c(N)c(C(=O)c3ccc4c(c3)OCO4)sc2n1`, the GI50 in assay [1] is 5.27 µM; in assay [2] it was 4.08 µM; in assay [4] it was 4.82 µM; in assay [5], 2.27 µM; in [6] it was 4.94 µM; in assay [7], 3.38 µM. Further, the GI50 is 5.03 µM in assay [8], 3.27 µM in assay [9] and 3.39 µM in [10]. In addition, the TGI in assay [1] is above 100 µM; in assay [2], 53.6 µM; in [4] it was 98.6 µM; in assay [5] it was 9.54 µM; in assay [6] it was 17 µM; in assay [7] it was 10.9 µM. Also, the TGI in assay [8] is 19.9 µM; in assay [9] it was 15.6 µM; in [10], 14.4 µM.
